# Measured values: patent US11708359B2, “Monoacylglycerol lipase modulators” (Janssen Pharmaceutica NV, priority 2020, dated 2023)
# Target: human MGL from HeLa cells (Homo sapiens (Human), UniProt Q99685)
# Assay: MGL in vitro activity assay ([glycerol-1,3-3H]-oleoyl glycerol cleavage, activated carbon filter)
# Format: biochemical
# Details: not given
# Procedure: The assay consists of combining endogenously expressed MGL from HeLa cells with test compounds, adding[glycerol-1,3-^3H]-oleoyl glycerol, incubating for one hour, and then measuring the amount of cleaved[1,3-^3H]-glycerol that passes through an activated carbon filter. The amount of cleaved, tritiated glycerol passing through the carbon filter is proportional to the activity of the MGL enzyme in a particular well/test condition.
# Standard conditions for this assay combine 300 nM [Glycerol-1,3-^3H]-oleoyl glycerol with human MGL from HeLa cells and test compounds for one hour, after which the reaction is filtered through activated carbon and tritium is measured in the flow through. […] MGL is the predominant hydrolase in HeLa cells/cell homogenates.
# human MGL from HeLa cells, sequence (Q99685 whole entry): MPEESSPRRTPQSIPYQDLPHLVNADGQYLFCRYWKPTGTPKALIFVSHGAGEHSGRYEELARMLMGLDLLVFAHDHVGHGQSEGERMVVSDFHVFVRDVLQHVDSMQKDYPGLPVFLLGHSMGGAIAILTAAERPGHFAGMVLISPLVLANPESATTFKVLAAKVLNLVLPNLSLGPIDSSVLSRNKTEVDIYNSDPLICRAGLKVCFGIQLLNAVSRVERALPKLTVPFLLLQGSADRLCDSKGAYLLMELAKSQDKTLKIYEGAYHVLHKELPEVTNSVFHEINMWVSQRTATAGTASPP
row,SMILES,IC50 [nM]
1,"Cc1ccc(C23CCN(C(=O)[C@H]4C[C@]5(COC(=O)N5)C4)CC2C3)cc1OC(F)(F)F (mixture of isomers) [Example 75, (rac)-(2s,4s)-2-(6-(4-Methyl-3-(trifluoromethoxy)phenyl)-3-azabicyclo[4.1.0]heptane-3-carbonyl)-7-oxa-5-azaspiro[3.4]octan-6-one]",0.34
2,"Cc1ccc(C23CCN(C(=O)[C@H]4C[C@]5(CCC(=O)N5)C4)CC2C3)cc1OC(F)(F)F (mixture of isomers) [Example 76, (rac)-(2r,4s)-2-(6-(4-Methyl-3-(trifluoromethoxy)phenyl)-3-azabicyclo[4.1.0]heptane-3-carbonyl)-5-azaspiro[3.4]octan-6-one]",2.6

# Same assay, conditions: 300 nM [Glycerol-1,3-3H]-oleoyl glycerol, endogenously expressed MGL from HeLa cells, one hour incubation; read-out: MGL IC50
row,SMILES,IC50 [nM]
1,"CC(C)(C)c1cccc([C@H]2[C@@H]3CN(C(=O)[C@H]4C[C@]5(COC(=O)N5)C4)C[C@@]32C)c1 (stereo in doubt) [Example 99, (2s,4*5)-2-((1*R,5*S,6*R)-6-(3-(tert-Butyl)phenyl)-1-methyl-3-azabicyclo[3.1.0]hexane-3-carbonyl)-7-oxa-5-azaspiro[3.4]octan-6-one]",0.64
2,"Cc1ccc([C@@]23CCN(C(=O)[C@H]4C[C@]5(COC(=O)N5)C4)C[C@@H]2C3)cc1F (stereo in doubt) [Example 48, (2s,4*5)-2-((1*R,6*5)-6-(3-Fluoro-4-methylphenyl)-3-azabicyclo[4.1.0]heptane-3-carbonyl)-7-oxa-5-azaspiro[3.4]octan-6-one]",1.3
3,"CC(C)c1ccc(C23CC2CN(C(=O)[C@H]2C[C@]4(CCC(=O)N4)C2)C3)cc1 (mixture of isomers) [Example 12, (rac)-(2r,4s)-2-(1-(4-Isopropylphenyl)-3-azabicyclo[3.1.0]hexane-3-carbonyl)-5-azaspiro[3.4]octan-6-one]",14
4,"Cc1cccc(C23CCN(C(=O)[C@H]4C[C@]5(COC(=O)N5)C4)CC2C3)c1 (mixture of isomers) [Example 43, (rac)-(2s,4s)-2-(6-(m-Tolyl)-3-azabicyclo[4.1.0]heptane-3-carbonyl)-7-oxa-5-azaspiro[3.4]octan-6-one]",8.2
5,"O=C1N[C@]2(CO1)C[C@H](C(=O)N1CC[C@@]3(c4cccc(OC(F)(F)F)c4)C[C@H]3C1)C2 (stereo in doubt) [Example 51, (2s,4*S)-2-((1*R,6*S)-6-(3-(Trifluoromethoxy)phenyl)-3-azabicyclo[4.1.0]heptane-3-carbonyl)-7-oxa-5-azaspiro[3.4]octan-6-one]",0.52
6,"Cc1cc(C2CC2)ccc1[C@H]1[C@@H]2CN(C(=O)[C@H]3C[C@]4(COC(=O)N4)C3)C[C@@H]21 [Example 109, (2s,4S)-2-((1R,5S,6S)-6-(4-Cyclopropyl-2-methylphenyl)-3-azabicyclo[3.1.0]hexane-3-carbonyl)-7-oxa-5-azaspiro[3.4]octan-6-one]",1.6
7,"CC(C)(CO)c1cccc([C@H]2[C@@H]3CN(C(=O)[C@H]4C[C@]5(COC(=O)N5)C4)C[C@@H]32)c1 [Example 104, (2s,4S)-2-((1R,5S,6S)-6-(3-(1-Hydroxy-2-methylpropan-2-yl)phenyl)-3-azabicyclo[3.1.0]hexane-3-carbonyl)-7-oxa-5-azaspiro[3.4]octan-6-one]",19
8,"O=C1CCC2(CC(C(=O)N3CC[C@@]4(c5ccc(OC(F)(F)F)cc5)C[C@H]4C3)C2)N1 (relative stereo) [Example 121, (2r,4*5)-2-((1*R,6*S)-6-(4-(Trifluoromethoxy)phenyl)-3-azabicyclo[4.1.0]heptane-3-carbonyl)-5-azaspiro[3.4]octan-6-one]",42
9,"O=C1N[C@]2(CO1)C[C@H](C(=O)N1CC[C@]3(c4ccccc4)C[C@@H]3C1)C2 [Example 41, (2s,4R)-2-((1S,6R)-6-Phenyl-3-azabicyclo[4.1.0]heptane-3-carbonyl)-7-oxa-5-azaspiro[3.4]octan-6-one]",9.6
10,"Cc1cccc([C@@]23CCN(C(=O)[C@H]4C[C@]5(COC(=O)N5)C4)C[C@@H]2C3)c1 (stereo in doubt) [Example 45, (2s,4*5)-2-((1*R,6*S)-6-(m-Tolyl)-3-azabicyclo[4.1.0]heptane-3-carbonyl)-7-oxa-5-azaspiro[3.4]octan-6-one]",32
11,"O=C1N[C@]2(CO1)C[C@H](C(=O)N1CC3CC3(c3cccc(OC(F)(F)F)c3)C1)C2 (mixture of isomers) [Example 19, (rac)-(2s,4s)-2-(1-(3-(Trifluoromethoxy)phenyl)-3-azabicyclo[3.1.0]hexane-3-carbonyl)-7-oxa-5-azaspiro[3.4]octan-6-one]",11
12,"O=C1N[C@]2(CO1)C[C@H](C(=O)N1CCC3CC3(c3ccccc3)C1)C2 (mixture of isomers) [Example 77, (rac)-(2s,4s)-2-(1-Phenyl-3-azabicyclo[4.1.0]heptane-3-carbonyl)-7-oxa-5-azaspiro[3.4]octan-6-one]",241
13,"Cc1ccc([C@H]2[C@@H]3CN(C(=O)[C@H]4C[C@]5(CCC(=O)N5)C4)C[C@@H]32)cc1C [Example 89, (2r,4S)-2-((1R,5S,6S)-6-(3,4-Dimethylphenyl)-3-azabicyclo[3.1.0]hexane-3-carbonyl)-5-azaspiro[3.4]octan-6-one]",178
14,"CC(C)(C)c1cccc([C@H]2[C@@H]3CN(C(=O)[C@H]4C[C@]5(CCC(=O)N5)C4)C[C@@H]32)c1 [Example 79, (2r,4S)-2-((1R,5S,6S)-6-(3-(tert-Butyl)phenyl)-3-azabicyclo[3.1.0]hexane-3-carbonyl)-5-azaspiro[3.4]octan-6-one]",7.2
15,"Cc1cc(C23CC2CN(C(=O)[C@H]2C[C@]4(COC(=O)N4)C2)C3)ccc1OC(F)(F)F (mixture of isomers) [Example 35, (rac)-(2s,4s)-2-(1-(3-Methyl-4-(trifluoromethoxy)phenyl)-3-azabicyclo[3.1.0]hexane-3-carbonyl)-7-oxa-5-azaspiro[3.4]octan-6-one]",6.5
16,"CC1(c2ccc([C@@]34C[C@@H]3CN(C(=O)[C@H]3C[C@]5(CCC(=O)N5)C3)C4)cc2)CC1 (stereo in doubt) [Example 95, (2r,4*S)-2-((1*R,5*5)-1-(4-(1-Methylcyclopropyl)phenyl)-3-azabicyclo[3.1.0]hexane-3-carbonyl)-5-azaspiro[3.4]octan-6-one]",7.5
17,"Cc1ccccc1C12CC1CN(C(=O)[C@H]1C[C@]3(COC(=O)N3)C1)C2 (mixture of isomers) [Example 20, (rac)-(2s,4s)-2-(1-(o-Tolyl)-3-azabicyclo[3.1.0]hexane-3-carbonyl)-7-oxa-5-azaspiro[3.4]octan-6-one]",6.5
18,"Cc1ccc([C@H]2[C@@H]3CN(C(=O)[C@H]4C[C@]5(COC(=O)N5)C4)C[C@@]32C)cc1OC(F)(F)F (racemic) [Example 114, (rac)-(2s,4*S)-2-((1*R,5*S,6*R)-1-Methyl-6-(4-methyl-3-(trifluoromethoxy)phenyl)-3-azabicyclo[3.1.0]hexane-3-carbonyl)-7-oxa-5-azaspiro[3.4]octan-6-one]",4.1
19,Cc1c([C@H]2[C@@H]3CN(C(=O)[C@H]4C[C@]5(COC(=O)N5)C4)C[C@@H]32)cccc1C(F)(F)F [Example 113],78
20,"O=C1N[C@]2(CO1)C[C@H](C(=O)N1CC[C@@]3(c4ccccc4)C[C@H]3C1)C2 [Example 40, (2s,4S)-2-((1R,6S)-6-Phenyl-3-azabicyclo[4.1.0]heptane-3-carbonyl)-7-oxa-5-azaspiro[3.4]octan-6-one]",136
